According to article PMC8869984, “Multifunctional Silver(I) Complexes with Metronidazole Drug Reveal Antimicrobial Properties and Antitumor Activity against Human Hepatoma and Colorectal Adenocarcinoma Cells” (Cancers, 2022):

Assays:
Caco-2 cells [1] = experiment: NRU assay (lysosomal activity), 72 h exposure; assay type: cell-based, human; conditions: Caco-2, NRU, Figure 6
[2] = tested on: C. perfringens ATCC 13124; experiment: microbe, parasite or virus in culture; assay type: cell-based, Clostridium perfringens
V. parvula ATCC 10790 = experiment: micro-dilution broth method (MIC, MBC); assay type: cell-based, Veillonella parvula
[3] = tested on: S. typhimurium ATCC 14028; experiment: micro-dilution broth method (MIC, MBC); assay type: cell-based, Salmonella Typhimurium
[4] = tested on: S. epidermidis ATCC 12228; experiment: micro-dilution broth method (MIC, MBC); assay type: cell-based, Staphylococcus epidermidis
S. aureus ATCC 25923 = experiment: micro-dilution broth method (MIC, MBC); assay type: cell-based, Staphylococcus aureus
C. jejunii ATCC 33291 = experiment: micro-dilution broth method (MIC, MBC); assay type: cell-based, Campylobacter jejunii
E. coli ATCC 25922 = experiment: micro-dilution broth method (MIC, MBC); assay type: cell-based, Escherichia coli
A. israeli ATCC 10049 = experiment: micro-dilution broth method (MIC, MBC); assay type: cell-based, Actinomyces israelii
K. pneumoniae ATCC 13883 = experiment: micro-dilution broth method (MIC, MBC); assay type: cell-based, Klebsiella pneumoniae
M. luteus ATCC 10240 = experiment: micro-dilution broth method (MIC, MBC); assay type: cell-based, Micrococcus luteus
P. aeruginosa ATCC 9027 = experiment: micro-dilution broth method (MIC, MBC); assay type: cell-based, Pseudomonas aeruginosa
S. aureus biofilm = experiment: qualitative antibiofilm activity, confocal laser scanning microscope (CLSM); conditions: 500 mg/L, 24 h exposure
B. fragilis ATCC 10240 = experiment: micro-dilution broth method (MIC, MBC); assay type: cell-based, Bacteroides fragilis
[5] = tested on: reference aerobic and anaerobic microorganisms (ATCC); experiment: micro-dilution broth method, whole panel of reference strains; assay type: cell-based; conditions: against the majority of tested bacterial strains
P. acnes ATCC 11827 = experiment: micro-dilution broth method (MIC, MBC); assay type: cell-based, Propionibacterium acnes; conditions: P. acnes ATCC 11827, value in brackets
Caco-2 cells [6] = experiment: MTT assay (mitochondrial activity), 72 h exposure; assay type: cell-based, human; conditions: Caco-2, MTT, Figure 6
E. faecalis ATCC 29212 = experiment: micro-dilution broth method (MIC, MBC); assay type: cell-based, Enterococcus faecalis
P. intermedia ATCC 25611 = experiment: micro-dilution broth method (MIC, MBC); assay type: cell-based
F. nucleatum ATCC 25586 = experiment: micro-dilution broth method (MIC, MBC); assay type: cell-based, Fusobacterium nucleatum
B. cereus ATCC 10876 = experiment: micro-dilution broth method (MIC, MBC); assay type: cell-based, Bacillus cereus
B. subtilis ATCC 6633 = experiment: micro-dilution broth method (MIC, MBC); assay type: cell-based, Bacillus subtilis
H. pylori ATCC 43504 = experiment: micro-dilution broth method (MIC, MBC); assay type: cell-based
Caco-2 cells [7] = experiment: TPC assay (total protein content), 72 h exposure; assay type: cell-based, human; conditions: Caco-2, TPC, Figure 6
Caco-2 cells [8] = experiment: LDH leakage assay (membrane integrity), 72 h exposure; assay type: cell-based, human; conditions: Caco-2, LDH, Figure 6
[9] = C. perfringens ATCC 13124, value in brackets
[10] = V. parvula ATCC 10790, value in brackets
[11] = S. typhimurium ATCC 14028, value in brackets
[12] = S. epidermidis ATCC 12228, value in brackets
[13] = S. aureus ATCC 25923, value in brackets
[14] = C. jejunii ATCC 33291, value in brackets
[15] = E. coli ATCC 25922, value in brackets
[16] = A. israeli ATCC 10049, value in brackets
[17] = K. pneumoniae ATCC 13883, value in brackets
[18] = M. luteus ATCC 10240, value in brackets
[19] = P. aeruginosa ATCC 9027, value in brackets
[20] = B. fragilis ATCC 10240, value in brackets
[21] = E. faecalis ATCC 29212, value in brackets
[22] = P. intermedia ATCC 25611, value in brackets
[23] = F. nucleatum ATCC 25586, value in brackets
[24] = B. cereus ATCC 10876, value in brackets
[25] = B. subtilis ATCC 6633, value in brackets
[26] = H. pylori ATCC 43504, value in brackets

Cc1ncc([N+](=O)[O-])n1CCO.Cc1ncc([N+](=O)[O-])n1CCO.O=[N+]([O-])[O-].[Ag+] [[Ag(MTZ)2NO3]]
lowest concentration with inhibition of lysosomal activity (Caco-2 cells [1]): 5.0 µM | MBC ([2]; C. perfringens ATCC 13124): 1.95 mg/L | MIC ([2]; C. perfringens ATCC 13124): 1.95 mg/L | MBC [2, 9]: 0.006 µM/mL | MIC [2, 9]: 0.006 µM/mL | MBC (V. parvula ATCC 10790; V. parvula ATCC 10790): 1.95 mg/L | MIC (V. parvula ATCC 10790; V. parvula ATCC 10790): 1.95 mg/L | MBC (V. parvula ATCC 10790; [10]): 0.006 µM/mL | MIC (V. parvula ATCC 10790; [10]): 0.006 µM/mL | MBC ([3]; S. typhimurium ATCC 14028): 31.3 mg/L | MIC ([3]; S. typhimurium ATCC 14028): 15.6 mg/L | MBC [3, 11]: 0.1 µM/mL | MIC [3, 11]: 0.049 µM/mL | MBC ([4]; S. epidermidis ATCC 12228): 62.5 mg/L | MIC ([4]; S. epidermidis ATCC 12228): 7.8 mg/L | MBC [4, 12]: 0.2 µM/mL | MIC [4, 12]: 0.025 µM/mL | MBC (S. aureus ATCC 25923; S. aureus ATCC 25923): 62.5 mg/L | MIC (S. aureus ATCC 25923; S. aureus ATCC 25923): 15.6 mg/L | MBC (S. aureus ATCC 25923; [13]): 0.2 µM/mL | MIC (S. aureus ATCC 25923; [13]): 0.049 µM/mL | MIC (C. jejunii ATCC 33291; C. jejunii ATCC 33291): 31.3 mg/L | MBC (C. jejunii ATCC 33291; [14]): 0.4 µM/mL | MIC (C. jejunii ATCC 33291; [14]): 0.1 µM/mL | MBC (E. coli ATCC 25922; E. coli ATCC 25922): 31.3 mg/L | MIC (E. coli ATCC 25922; E. coli ATCC 25922): 15.6 mg/L | MBC (E. coli ATCC 25922; [15]): 0.1 µM/mL | MIC (E. coli ATCC 25922; [15]): 0.049 µM/mL | MBC (A. israeli ATCC 10049; A. israeli ATCC 10049): 3.9 mg/L | MIC (A. israeli ATCC 10049; A. israeli ATCC 10049): 0.49 mg/L | MBC (A. israeli ATCC 10049; [16]): 0.012 µM/mL | MIC (A. israeli ATCC 10049; [16]): 0.0015 µM/mL | MBC (K. pneumoniae ATCC 13883; K. pneumoniae ATCC 13883): 31.3 mg/L | MIC (K. pneumoniae ATCC 13883; K. pneumoniae ATCC 13883): 15.6 mg/L | MBC (K. pneumoniae ATCC 13883; [17]): 0.1 µM/mL | MIC (K. pneumoniae ATCC 13883; [17]): 0.049 µM/mL | MBC (M. luteus ATCC 10240; M. luteus ATCC 10240): 62.5 mg/L | MIC (M. luteus ATCC 10240; M. luteus ATCC 10240): 7.8 mg/L | MBC (M. luteus ATCC 10240; [18]): 0.2 µM/mL | MIC (M. luteus ATCC 10240; [18]): 0.025 µM/mL | MBC (P. aeruginosa ATCC 9027; P. aeruginosa ATCC 9027): 15.6 mg/L | MIC (P. aeruginosa ATCC 9027; P. aeruginosa ATCC 9027): 7.8 mg/L | MBC (P. aeruginosa ATCC 9027; [19]): 0.049 µM/mL | MIC (P. aeruginosa ATCC 9027; [19]): 0.025 µM/mL | effect on biofilm (CLSM, qualitative) (S. aureus biofilm): significantly reduced biofilm density | MBC (B. fragilis ATCC 10240; B. fragilis ATCC 10240): 0.98 mg/L | MIC (B. fragilis ATCC 10240; B. fragilis ATCC 10240): 0.98 mg/L | MBC (B. fragilis ATCC 10240; [20]): 0.003 µM/mL | MIC (B. fragilis ATCC 10240; [20]): 0.003 µM/mL | minimal inhibition concentration (MIC), range [5]: 0.24 to 250 µg/mL | MBC (P. acnes ATCC 11827): 0.4 µM/mL | MIC (P. acnes ATCC 11827): 0.4 µM/mL | lowest concentration with inhibition of mitochondrial activity (Caco-2 cells [6]): 5.0 µM | MBC (E. faecalis ATCC 29212; E. faecalis ATCC 29212): 62.5 mg/L | MIC (E. faecalis ATCC 29212; E. faecalis ATCC 29212): 31.3 mg/L | MBC (E. faecalis ATCC 29212; [21]): 0.2 µM/mL | MIC (E. faecalis ATCC 29212; [21]): 0.1 µM/mL | MBC (P. intermedia ATCC 25611; P. intermedia ATCC 25611): 0.98 mg/L | MIC (P. intermedia ATCC 25611; P. intermedia ATCC 25611): 0.98 mg/L | MBC (P. intermedia ATCC 25611; [22]): 0.003 µM/mL | MIC (P. intermedia ATCC 25611; [22]): 0.003 µM/mL | MBC (F. nucleatum ATCC 25586; F. nucleatum ATCC 25586): 0.98 mg/L | MIC (F. nucleatum ATCC 25586; F. nucleatum ATCC 25586): 0.49 mg/L | MBC (F. nucleatum ATCC 25586; [23]): 0.003 µM/mL | MIC (F. nucleatum ATCC 25586; [23]): 0.0015 µM/mL | MIC (B. cereus ATCC 10876; B. cereus ATCC 10876): 62.5 mg/L | MBC (B. cereus ATCC 10876; [24]): 0.4 µM/mL | MIC (B. cereus ATCC 10876; [24]): 0.2 µM/mL | MBC (B. subtilis ATCC 6633; B. subtilis ATCC 6633): 15.6 mg/L | MIC (B. subtilis ATCC 6633; B. subtilis ATCC 6633): 15.6 mg/L | MBC (B. subtilis ATCC 6633; [25]): 0.049 µM/mL | MIC (B. subtilis ATCC 6633; [25]): 0.049 µM/mL | MBC (H. pylori ATCC 43504; H. pylori ATCC 43504): 15.6 mg/L | MIC (H. pylori ATCC 43504; H. pylori ATCC 43504): 15.6 mg/L | MBC (H. pylori ATCC 43504; [26]): 0.049 µM/mL | MIC (H. pylori ATCC 43504; [26]): 0.049 µM/mL | lowest concentration with decreased total protein content (Caco-2 cells [7]): 10.0 µM | lowest concentration with significant (p ≤ 0.05) disintegration of cellular membranes (Caco-2 cells [8]): 1.0 µM
